Key:
Mus musculus [1] = experiment: Inhibition of methacholine-induced bronchoconstriction in Balb/c mouse at 5 ug administered intranasally after 48 hrs; type: functional
Mus musculus [2] = experiment: Inhibition of methacholine-induced bronchoconstriction in Balb/c mouse at 5 ug administered intranasally after 5 hrs; type: functional
Mus musculus [3] = experiment: Inhibition of methacholine-induced bronchoconstriction in Balb/c mouse at 5 ug administered intranasally after 24 hrs; type: functional
[4] = target: Muscarinic acetylcholine receptor M3 (Homo sapiens, UniProt P20309); experiment: Antagonist activity at human muscarinic M3 receptor expressed in CHO cells assessed as inhibition of acetylcholine-induced calcium mobilization by FLIPR assay; type: functional, cell-based
Sequence of Muscarinic acetylcholine receptor M3 (P20309 whole entry): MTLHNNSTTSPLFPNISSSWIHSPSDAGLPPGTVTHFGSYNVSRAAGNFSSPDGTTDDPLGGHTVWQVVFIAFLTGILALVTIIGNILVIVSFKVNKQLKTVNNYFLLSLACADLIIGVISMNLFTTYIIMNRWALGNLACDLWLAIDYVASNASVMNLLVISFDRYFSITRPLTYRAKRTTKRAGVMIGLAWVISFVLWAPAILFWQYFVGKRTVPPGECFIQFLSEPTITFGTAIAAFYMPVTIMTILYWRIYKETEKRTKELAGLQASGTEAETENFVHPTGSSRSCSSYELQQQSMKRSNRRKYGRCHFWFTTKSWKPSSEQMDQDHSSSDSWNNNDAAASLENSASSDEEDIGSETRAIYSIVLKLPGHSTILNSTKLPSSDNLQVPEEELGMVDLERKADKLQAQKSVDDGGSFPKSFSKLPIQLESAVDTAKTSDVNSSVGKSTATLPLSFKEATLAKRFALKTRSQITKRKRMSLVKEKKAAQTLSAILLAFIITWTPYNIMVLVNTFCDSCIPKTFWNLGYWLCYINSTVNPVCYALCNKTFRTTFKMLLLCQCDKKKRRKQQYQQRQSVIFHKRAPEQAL

[5] = target: T1, Muscarinic acetylcholine receptor M1 (Homo sapiens, UniProt P11229); experiment: Antagonist activity at human muscarinic M1 receptor expressed in CHO cells assessed as inhibition of acetylcholine-induced calcium mobilization by FLIPR assay; type: functional, cell-based
T1 sequence (P11229 whole entry): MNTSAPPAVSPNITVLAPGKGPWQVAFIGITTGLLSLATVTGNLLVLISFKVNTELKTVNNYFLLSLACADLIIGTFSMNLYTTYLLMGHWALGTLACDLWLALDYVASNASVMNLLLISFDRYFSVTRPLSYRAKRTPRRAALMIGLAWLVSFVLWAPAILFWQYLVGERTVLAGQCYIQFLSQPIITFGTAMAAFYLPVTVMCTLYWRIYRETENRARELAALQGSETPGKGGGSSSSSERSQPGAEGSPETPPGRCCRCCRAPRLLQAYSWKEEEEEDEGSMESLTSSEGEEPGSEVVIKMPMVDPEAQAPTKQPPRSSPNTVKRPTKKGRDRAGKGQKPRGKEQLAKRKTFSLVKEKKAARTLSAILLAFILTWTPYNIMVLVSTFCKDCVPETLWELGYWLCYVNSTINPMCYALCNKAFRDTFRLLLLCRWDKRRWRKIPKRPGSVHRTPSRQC

[6] = target: T2, Muscarinic acetylcholine receptor M2 (Homo sapiens, UniProt P08172); experiment: Antagonist activity at human muscarinic M2 receptor expressed in CHO cells assessed as inhibition of acetylcholine-induced calcium mobilization by FLIPR assay; type: functional, cell-based
T2 sequence (P08172 whole entry): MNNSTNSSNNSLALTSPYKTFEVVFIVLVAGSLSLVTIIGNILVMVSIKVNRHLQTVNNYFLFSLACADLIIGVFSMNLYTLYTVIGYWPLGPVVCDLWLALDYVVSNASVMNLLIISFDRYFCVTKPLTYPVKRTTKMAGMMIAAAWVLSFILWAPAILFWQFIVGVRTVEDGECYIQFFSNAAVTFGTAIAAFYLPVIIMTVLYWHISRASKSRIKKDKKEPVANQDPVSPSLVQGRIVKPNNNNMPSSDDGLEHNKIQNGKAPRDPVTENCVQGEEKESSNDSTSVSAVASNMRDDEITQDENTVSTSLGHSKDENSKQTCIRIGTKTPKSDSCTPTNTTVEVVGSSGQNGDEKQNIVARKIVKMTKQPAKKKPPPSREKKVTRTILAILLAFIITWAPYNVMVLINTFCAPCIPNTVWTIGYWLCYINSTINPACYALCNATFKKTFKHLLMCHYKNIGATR

SMILES	IC50 [4] [nM]	IC50 [5] [nM]	IC50 [6] [nM]	inhibition (INH) (Mus musculus [1]) [%]	inhibition (INH) (Mus musculus [2]) [%]	inhibition (INH) (Mus musculus [3]) [%]
CC(C)OC(=O)c1ccc(NC(=O)N[C@@H](Cc2ccc(O)cc2)C(=O)N[C@H]2CCC[N+](C)(Cc3ccc(Cl)cc3)C2)cc1 (some centres undefined)	–	–	–	0	94	38
Cc1c[n+]2cc(CNC(=O)[C@H](Cc3ccc(O)cc3)NC(=O)Nc3ccc(C(=O)OC(C)C)cc3)n(Cc3ccc(C(F)(F)F)cc3)c2s1.O=C([O-])C(F)(F)F	–	–	–	–	89	12
CC(C)OC(=O)c1ccc(NC(=O)N[C@@H](Cc2ccc(O)cc2)C(=O)NCCC[N+](C)(C)Cc2ccc(Cl)cc2)cc1	197	757	178	–	–	–
CC(C)OC(=O)c1ccc(NC(=O)N[C@@H](Cc2ccc(O)cc2)C(=O)N2CC[N+](C)(Cc3ccc4c(c3)OCO4)CC2)cc1	10.2	> 3300	427	–	–	–
CC(C)OC(=O)c1ccc(NC(=O)N[C@@H](Cc2ccc(O)cc2)C(=O)N2CC[N+](C)(CC3CCCCC3)CC2)cc1	50.2	2500	191	–	–	–
CC(C)OC(=O)c1ccc(NC(=O)N[C@@H](Cc2ccc(O)cc2)C(=O)N2CC[N+](Cc3ccc(Cl)cc3)(CC3CCCCC3)CC2)cc1	< 5	141	58.8	–	–	–
CC(C)OC(=O)c1ccc(NC(=O)N[C@@H](Cc2ccc(O)cc2)C(=O)N(C)Cc2n(C)cc[n+]2Cc2ccc(Cl)cc2)cc1	392	> 3300	999	–	–	–
CC[N+]1(C2CCN(C(=O)[C@H](Cc3ccc(O)cc3)NC(=O)Nc3ccc(C(=O)OC(C)C)cc3)CC2)CCCC1	579	> 3300	556	–	–	–
CC(C)OC(=O)c1ccc(NC(=O)N[C@@H](Cc2ccc(O)cc2)C(=O)NCC[N+](C)(Cc2ccc(Cl)cc2)Cc2ccc(Cl)cc2)cc1	70.4	379	405	–	–	–
CC(C)OC(=O)c1ccc(NC(=O)N[C@@H](Cc2ccc(O)cc2)C(=O)NCC[N+](C)(C)Cc2ccc(Cl)cc2)cc1	143	1430	549	–	–	–
CC[N+](CC)(CCNC(=O)[C@H](Cc1ccc(O)cc1)NC(=O)Nc1ccc(C(=O)OC(C)C)cc1)Cc1ccc(Cl)cc1	223	584	311	–	–	–
CC(C)OC(=O)c1ccc(NC(=O)N[C@@H](Cc2ccc(O)cc2)C(=O)NCC[N+](C)(C)C23CC4CC(CC(C4)C2)C3)cc1	6.1	13.1	13.1	–	–	–
CC(C)OC(=O)c1ccc(NC(=O)N[C@@H](Cc2ccc(O)cc2)C(=O)NCC[N+]2(Cc3ccc(Cl)cc3)CCCCC2)cc1	33.4	199	82.5	–	–	–
CC(C)OC(=O)c1ccc(NC(=O)N[C@@H](Cc2ccc(O)cc2)C(=O)NCC[N+]2(C)CCCCCC2)cc1	159	> 3300	328	–	–	–
CC(C)OC(=O)c1ccc(NC(=O)N[C@@H](Cc2ccc(O)cc2)C(=O)NCC[N+](C)(C(C)C)C(C)C)cc1	237	> 3300	337	–	–	–
CC(C)OC(=O)c1ccc(NC(=O)N[C@@H](Cc2ccc(O)cc2)C(=O)N(CC[N+](C)(C)C)Cc2ccccc2)cc1	> 3300	> 3300	> 3300	–	–	–
CC(C)OC(=O)c1ccc(NC(=O)N[C@@H](Cc2ccc(O)cc2)C(=O)NCCC[N+](C)(C)Cc2ccc3ccccc3c2)cc1	417	734	411	–	–	–
Cc1cn2cc(CNC(=O)[C@H](Cc3ccc(O)cc3)NC(=O)Nc3ccc(C(=O)OC(C)C)cc3)[n+](Cc3ccc4ccccc4c3)c2s1.O=C([O-])C(F)(F)F	–	–	–	69	78	–

More lines, main results first:

IC50 [4] [nM]	IC50 [5] [nM]	IC50 [6] [nM]	SMILES	inhibition (INH) (Mus musculus [1]) [%]	inhibition (INH) (Mus musculus [2]) [%]	inhibition (INH) (Mus musculus [3]) [%]
< 5	476	87.6	CC(C)OC(=O)c1ccc(NC(=O)N[C@@H](Cc2ccc(O)cc2)C(=O)NCC(C)(C)C[N+](C)(C)Cc2ccc(Cl)cc2)cc1	–	–	–
27.5	893	97.9	CC(C)OC(=O)c1ccc(NC(=O)N[C@@H](Cc2ccc(O)cc2)C(=O)N2CC[N+](Cc3ccc(Cl)cc3)(C(C)C)CC2)cc1	–	–	–
< 5	462	41.2	CC(C)OC(=O)c1ccc(NC(=O)N[C@@H](Cc2ccc(O)cc2)C(=O)N2CC[N+](Cc3ccc(Cl)cc3)(CC3CCc4ccccc4C3)CC2)cc1 (some centres undefined)	–	–	–
< 5	1350	860	CC(C)OC(=O)c1ccc(NC(=O)N[C@@H](Cc2ccc(O)cc2)C(=O)N2CC[N+](C)(CCc3ccccc3)CC2)cc1	–	–	–
> 3300	> 3300	> 3300	CC(C)OC(=O)c1ccc(NC(=O)N[C@@H](Cc2ccc(O)cc2)C(=O)N(C)Cc2n(C)cc[n+]2C)cc1	–	–	–
51.9	327	181	CC(C)OC(=O)c1ccc(NC(=O)N[C@@H](Cc2ccc(O)cc2)C(=O)NCc2n(Cc3ccc(Cl)cc3)cc[n+]2Cc2ccc(Cl)cc2)cc1	–	–	–
< 5	< 5	< 5	Cc1csc2n(C)c(CNC(=O)[C@H](Cc3ccc(O)cc3)NC(=O)Nc3ccc(C(=O)OC(C)C)cc3)c[n+]12	–	–	–
< 5	< 5	< 5	Cc1csc2n(Cc3ccc(Cl)cc3)c(CNC(=O)[C@H](Cc3ccc(O)cc3)NC(=O)Nc3ccc(C(=O)OC(C)C)cc3)c[n+]12	–	–	–
< 5	< 5	< 5	Cc1c[n+]2cc(CNC(=O)[C@H](Cc3ccc(O)cc3)NC(=O)Nc3ccc(C(=O)OC(C)C)cc3)n(C)c2s1	–	–	–
45.3	1120	105	CC(C)OC(=O)c1ccc(NC(=O)N[C@@H](Cc2ccc(O)cc2)C(=O)N2CCC[C@H]([N+](C)(C)Cc3ccc(Cl)cc3)C2)cc1	–	–	–
68.9	882	94.6	CC(C)OC(=O)c1ccc(NC(=O)N[C@@H](Cc2ccc(O)cc2)C(=O)N2CCC([N+]3(Cc4ccc(Cl)cc4)CCCC3)CC2)cc1	–	–	–
82.2	948	15	CC(C)OC(=O)c1ccc(NC(=O)N[C@@H](Cc2ccc(O)cc2)C(=O)NCC[N+](C)(Cc2ccc3ccccc3c2)Cc2ccc3ccccc3c2)cc1	–	–	–
44.9	418	108	CC(C)OC(=O)c1ccc(NC(=O)N[C@@H](Cc2ccc(O)cc2)C(=O)NCC[N+]2(Cc3ccc(Cl)cc3)CCCC2)cc1	–	–	–
13.3	1900	832	CC(C)OC(=O)c1ccc(NC(=O)N[C@@H](Cc2ccc(O)cc2)C(=O)N2CCC[C@@H]([N+](C)(C)Cc3ccc(Cl)cc3)C2)cc1	–	–	–
